In article PMC6588608 (Communications Biology, 2019):
Where a chain is given by its changes, count along the chain named. Where two headings read alike, the source gives them in different places. Each block holds one compound with its values, some of them ahead of it.

Tests used:
[1] = target: T1, constitutively active ETA receptor (ETA-L3.43Q) (Homo sapiens, UniProt P25101, L176Q); assay: TGFα shedding assay, antagonist activity against ET-1 (0.5 nM)-induced AP-TGFα release
T1 sequence (P25101 21-427 L176Q): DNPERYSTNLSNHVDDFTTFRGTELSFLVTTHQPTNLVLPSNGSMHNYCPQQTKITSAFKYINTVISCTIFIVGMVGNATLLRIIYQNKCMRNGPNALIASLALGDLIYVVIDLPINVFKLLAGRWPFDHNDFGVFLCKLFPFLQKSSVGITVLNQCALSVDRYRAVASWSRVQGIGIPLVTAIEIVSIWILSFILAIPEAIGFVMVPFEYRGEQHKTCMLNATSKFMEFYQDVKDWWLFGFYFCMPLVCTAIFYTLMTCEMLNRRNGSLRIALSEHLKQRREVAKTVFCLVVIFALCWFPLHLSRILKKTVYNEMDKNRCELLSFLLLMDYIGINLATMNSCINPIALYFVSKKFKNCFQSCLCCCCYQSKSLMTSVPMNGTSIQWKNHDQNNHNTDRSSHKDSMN
Method: (§1) The TGFα shedding assay, which measures the activation of Gq/11 and G12/13 signaling[24], was performed as described previously[22]. Briefly, a plasmid encoding an ETB construct with an internal FLAG epitope tag or an ETA construct was transfected, together with a plasmid encoding alkaline phosphatase (AP)-tagged TGFα (AP-TGFα), into HEK293A cells by using a polyethylenimine (PEI) transfection reagent (1 µg ETR plasmid, 2.5 µg AP-TGFα plasmid, and 25 µl of 1 mg per ml PEI solution per 10-cm culture dish). […] The AP-TGFα release signals were fitted to a four-parameter sigmoidal concentration-response curve, using the Prism 7 software (GraphPad Prism), and the pEC50 (equal to −log10 EC50) and Emax values were obtained.
(§2) To measure the constitutive activity in a plasmid volume-dependent manner, HEK293 cells were seeded in a 96-well plate at a concentration of 4 × 10^5 cells per ml in Opti-MEM I Reduced Serum Media (Thermo Fisher Scientific), in a volume of 80 μl per well. […] After adding the AP reaction solution, the absorbances of the cells and the CM plates were measured at 20 min intervals. The AP-TGFα release signals were calculated as described above, and the signal in the mock-transfected conditions was set at the baseline.

[2] = target: T2, constitutively active ETB receptor (ETB-L3.43Q) (Homo sapiens, UniProt P24530, L192Q); assay: as above
T2 sequence (P24530 27-442 L192Q): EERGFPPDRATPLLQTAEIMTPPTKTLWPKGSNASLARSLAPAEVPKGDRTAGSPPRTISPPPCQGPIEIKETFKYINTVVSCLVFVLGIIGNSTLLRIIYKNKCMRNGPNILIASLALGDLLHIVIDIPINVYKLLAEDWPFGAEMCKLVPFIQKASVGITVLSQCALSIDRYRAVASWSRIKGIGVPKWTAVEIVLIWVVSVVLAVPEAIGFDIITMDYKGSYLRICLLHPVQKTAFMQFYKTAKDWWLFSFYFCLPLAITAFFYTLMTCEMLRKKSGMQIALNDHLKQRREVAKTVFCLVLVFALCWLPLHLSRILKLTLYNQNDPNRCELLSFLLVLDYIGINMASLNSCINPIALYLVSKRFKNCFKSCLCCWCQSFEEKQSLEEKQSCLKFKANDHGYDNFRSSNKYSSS
Method: as §1, §2

ETA (WT) = target: T3, ETA (WT) (Homo sapiens, UniProt P25101); assay: TGFα shedding assay, inverse agonist activity (4 h incubation)
T3 sequence (P25101 21-427): T1 sequence (P25101 21-427 L176Q) with Q156L
Method: as §1

[3] = target: T4, ETA (L3.43Q) (constitutively active ETA receptor) (Homo sapiens, UniProt P25101, L176Q); assay: as above; conditions: for change of the basal activity: ETA-L^3.43Q, Supplementary Fig. 6b, c
T4 sequence (P25101 21-427 L176Q): T1 sequence (P25101 21-427 L176Q)
Method: as §1, §2

ETB receptor (wild type) = target: T5, ETB receptor (wild type) (Homo sapiens, UniProt P24530); assay: TGFα shedding assay, antagonist activity against ET-1 (0.5 nM)-induced AP-TGFα release; format: cell-based; conditions: Supplementary Fig. 5d, ETB (WT)
T5 construct: expressed in transfected cells; host or cells: HEK293A
T5 sequence (P24530 27-442): T2 sequence (P24530 27-442 L192Q) with Q166L
Method: The TGFα shedding assay, which measures the activation of Gq/11 and G12/13 signaling, was performed as described previously. Briefly, a plasmid encoding an ETB construct with an internal FLAG epitope tag or an ETA construct was transfected, together with a plasmid encoding alkaline phosphatase (AP)-tagged TGFα (AP-TGFα), into HEK293A cells by using a polyethylenimine (PEI) transfection reagent (1 µg ETR plasmid, 2.5 µg AP-TGFα plasmid, and 25 µl of 1 mg per ml PEI solution per 10-cm culture dish). […] The AP-TGFα release signals were fitted to a four-parameter sigmoidal concentration-response curve, using the Prism 7 software (GraphPad Prism), and the pEC50 (equal to −log10 EC50) and Emax values were obtained.

ETB-WT = target: T6, ETB-WT (Homo sapiens, UniProt P24530); assay: TGFα shedding assay, inverse agonist activity (4 h incubation); conditions: for Emax: read-out: Emax ± SEM
T6 sequence (P24530 27-442): T2 sequence (P24530 27-442 L192Q) with Q166L
Method: as §1

[4] = target: T7, ETB-L192^3.43Q (constitutively active ETB receptor) (Homo sapiens, UniProt P24530, L192Q); assay: as above; conditions: for Emax: read-out: Emax ± SEM
T7 sequence (P24530 27-442 L192Q): T2 sequence (P24530 27-442 L192Q)
Method: as §1, §2

ETA receptor (wild type) = target: T8, ETA receptor (wild type) (Homo sapiens, UniProt P25101); assay: TGFα shedding assay, antagonist activity against ET-1 (0.5 nM)-induced AP-TGFα release
T8 sequence (P25101 21-427): T1 sequence (P25101 21-427 L176Q) with Q156L
Method: as §1

[5] = tested on: cold injury-mediated brain edema; design: method as in PMID 25000290, PMID 26174228; conditions: animal model; intracerebroventricular administration; cited from earlier work
ETB receptor = target: ETB receptor; design: method as in PMID 8587424; conditions: read-out: IC50 as ETB-selective antagonist; cited from earlier work

IC50 [1]: > 10000 nM | IC50 ([2]; IC50, Supplementary Fig. 5d): 75 nM | IC50 ([2]; pIC50 ± SEM, Supplementary Fig. 5d): 74.1 nM | Emax (ETA (WT)): < 2% | Emax [3]: < 2% | IC50 (ETB receptor (wild type); read-out: IC50): 110 nM | IC50 (ETB receptor (wild type); read-out: pIC50 ± SEM (converted)): 107 nM | Emax (ETB-WT): < 2% | EC50 ([4]; EC50, Table 3, ETB-L192^3.43Q, 4 h incubation, reduction of basal activity for inverse agonists): 0.96 nM | EC50 ([4]; pEC50 (mean ± SEM), Table 3, ETB-L192^3.43Q, 4 h incubation): 0.955 nM | Emax [4]: -18.5 ± 0.7% | IC50 (ETA receptor (wild type); IC50, Supplementary Fig. 5d, ETA (WT)): > 10000 nM
SMILES: CCCC[C@@H](NC(=O)[C@@H](Cc1cn(C(=O)OC)c2ccccc12)NC(=O)[C@H](CC(C)(C)C)NC(=O)N1[C@H](C)CCC[C@@H]1C)C(=O)O [BQ-788]

IC50 ([1]; Supplementary Fig. 5d, ETA (L3.43Q), ET-1 0.5 nM): > 3000 nM | IC50 ([2]; Supplementary Fig. 5d): 4.2 nM | pIC50 ± SEM ([2]; Supplementary Fig. 5d): 8.37 ± 0.06 | Emax (ETA (WT); Supplementary Fig. 6c, ETA (WT), AP-TGFα release, baseline = no compound, 4 h): < 2% | Emax ([3]; Supplementary Fig. 6c, ETA (L3.43Q), AP-TGFα release, baseline = no compound, 4 h): < 2% | pIC50 ± SEM (ETB receptor (wild type)): 8.06 ± 0.04 | IC50 (ETB receptor (wild type); read-out: IC50): 8.7 nM | Emax ± SEM (ETB-WT; Table 3, ETB-WT, AP-TGFα release, spontaneous release set at baseline, 4 h): <2% | pEC50 (mean ± SEM) ([4]; Table 3, ETB-L192^3.43Q, 4 h incubation): 9.21 ± 0.04 | EC50 ([4]; Table 3, ETB-L192^3.43Q, 4 h incubation, reduction of basal activity for inverse agonists): 0.61 nM | Emax ± SEM ([4]; Table 3, ETB-L192^3.43Q, AP-TGFα release, spontaneous release set at baseline, 4 h): −31.5 ± 2.0% | IC50 (ETA receptor (wild type); Supplementary Fig. 5d, ETA (WT)): > 3000 nM
SMILES: COc1ccccc1Oc1c(NS(=O)(=O)c2ccc(C(C)(C)C)cc2)nc(-c2ncccn2)nc1OCCC(=O)Nc1c(C)cccc1C [K-8794]

Emax (ETA (WT)): < 2% | Emax [3]: < 2% | change of the basal activity [3]: did not change the basal activity
SMILES: COc1ccccc1Oc1c(NS(=O)(=O)c2ccc(C(C)(C)C)cc2)nc(-c2ncccn2)nc1OCCO [Bosentan]

IC50 [1]: > 3000 nM | Emax (ETA (WT)): < 2% | Emax [3]: < 2% | change of the basal activity [3]: did not change the basal activity | Emax (ETB-WT): < 2% | Emax [4]: -27 ± 1.1% | IC50 (ETA receptor (wild type); IC50 for the ETA receptor, text on Fig. 1a): > 3000 nM | IC50 (ETA receptor (wild type); pIC50 ± SEM ETA, Fig. 1a, HEK293 cells): < 3160 nM
SMILES: Cc1cc(C)cc(C(=O)N(C)C(Cc2ccc(-c3ccccc3)cc2)C(=O)NC(Cc2c[nH]c3ccccc23)C(=O)O)c1 (centres unmarked) [IRL2500]
effect on cold injury-mediated brain edema and disruption of the blood–brain barrier [5]: attenuated the cold injury-mediated brain edema and disruption of the blood–brain barrier | IC50 (ETB receptor): 1.2 nM | change of the receptor activation level (ligand-induced AP-TGFα release) (ETB-WT; wild-type ETB, 4 h-incubation, Fig. 4d): did not change the receptor activation level
